Assay results reported in patent US20220089592A1, “IMIDAZO[1,2-A]PYRIDINYL DERIVATIVES AS IRAK4 INHIBITORS” (priority 2019, published 2022).

Target: T1, IRAK4 (Homo sapiens, UniProt Q9NWZ3)
T1 sequence (Q9NWZ3 1-460): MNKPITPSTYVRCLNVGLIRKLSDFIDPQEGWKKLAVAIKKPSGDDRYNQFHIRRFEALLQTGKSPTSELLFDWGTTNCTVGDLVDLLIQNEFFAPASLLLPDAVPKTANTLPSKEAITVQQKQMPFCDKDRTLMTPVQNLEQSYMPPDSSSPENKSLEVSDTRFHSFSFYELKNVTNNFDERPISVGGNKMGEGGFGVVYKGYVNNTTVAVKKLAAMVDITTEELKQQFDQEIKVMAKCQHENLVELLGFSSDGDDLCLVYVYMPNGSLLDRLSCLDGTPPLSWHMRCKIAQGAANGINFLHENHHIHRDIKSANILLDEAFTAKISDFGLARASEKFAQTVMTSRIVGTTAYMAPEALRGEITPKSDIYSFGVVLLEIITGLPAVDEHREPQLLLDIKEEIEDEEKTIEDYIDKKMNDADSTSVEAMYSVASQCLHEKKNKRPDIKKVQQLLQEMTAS
Test: 2-hour 1 mM ATP IRAK4 Biochemical assay (as above, but with 100 pM IRAK4 and 1 mM ATP)
Settings: IRAK4 MSD BIOCHEMICAL (1 mM ATP) IC50 (μM), 100 pM IRAK4, 2 hours
In short: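 MSD electrochemiluminescence read-out: biotinylated peptide product bound to streptavidin plates, probed with anti-P-Thr rabbit antibody and Sulfo-Tag goat anti-rabbit. Kinase reaction used 1 mM ATP and 100 pM IRAK4 over 2 hours before EDTA quench.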

Compound | IC50 [µM]
COc1nc(NC(=O)c2coc(C)n2)cn2cc(C34CCC(C)(C3)OC4)nc12 (stereo not shown) [Example 471, N-(8-methoxy-2-(1-methyl-2-oxabicyclo[2.2.1]heptan-4-yl)imidazo[1,2-a]pyrazin-6-yl)-2-methyloxazole-4-carboxamide 2,2,2-trifluoroacetate] | 0.022
COc1nc(NC(=O)c2coc(C3CC3)n2)cn2cc(C34CCC(C)(C3)OC4)nc12 (stereo not shown) [Example 472, 2-cyclopropyl-N-(8-methoxy-2-(1-methyl-2-oxabicyclo[2.2.1]heptan-4-yl)imidazo[1,2-a]pyrazin-6-yl)oxazole-4-carboxamide 2,2,2-trifluoroacetate] | 0.015
CCOc1nc(NC(=O)c2coc(C)n2)cn2cc(C34COC(C)(C3)C4)nc12 [Example 473, N-(8-ethoxy-2-(1-methyl-2-oxabicyclo[2.1.1]hexan-4-yl)imidazo[1,2-a]pyrazin-6-yl)-2-methyloxazole-4-carboxamide] | 0.031
CCOc1nc(NC(=O)c2cccc(C)n2)cn2cc(C3CCOCC3)nc12 [Example 474, N-(8-ethoxy-2-(tetrahydro-2H-pyran-4-yl)imidazo[1,2-a]pyrazin-6-yl)-6-methylpicolinamide 2,2,2-trifluoroacetate] | 0.025
COc1ccccc1C(=O)Nc1cn2cc(C34COC(C)(C3)C4)nc2c(OC(C)C)n1 [Example 477, N-(8-isopropoxy-2-(1-methyl-2-oxabicyclo[2.1.1]hexan-4-yl)imidazo[1,2-a]pyrazin-6-yl)-2-methoxybenzamide 2,2,2-trifluoroacetate] | 0.015
COc1cc(F)ccc1C(=O)Nc1cn2cc(C34COC(C)(C3)C4)nc2c(OC(C)C)n1 [Example 479, 4-fluoro-N-(8-isopropoxy-2-(1-methyl-2-oxabicyclo[2.1.1]hexan-4-yl)imidazo[1,2-a]pyrazin-6-yl)-2-methoxybenzamide 2,2,2-trifluoroacetate] | 0.015
CC(C)Oc1nc(NC(=O)c2ccnc3ccnn23)cn2cc(C34COC(C)(C3)C4)nc12 [Example 481, N-(8-isopropoxy-2-(1-methyl-2-oxabicyclo[2.1.1]hexan-4-yl)imidazo[1,2-a]pyrazin-6-yl)pyrazolo[1,5-a]pyrimidine-7-carboxamide] | 0.025
CC(C)Oc1nc(NC(=O)c2cnn3cccc(F)c23)cn2cc(C34COC(C)(C3)C4)nc12 [Example 482, 4-fluoro-N-(8-isopropoxy-2-(1-methyl-2-oxabicyclo[2.1.1]hexan-4-yl)imidazo[1,2-a]pyrazin-6-yl)pyrazolo[1,5-a]pyridine-3-carboxamide] | 0.015
COc1ccccc1C(=O)Nc1cn2cc(C34COC(CF)(C3)C4)nc2c(OC(C)C)n1 [Example 483, N-(2-(1-(fluoromethyl)-2-oxabicyclo[2.1.1]hexan-4-yl)-8-isopropoxyimidazo[1,2-a]pyrazin-6-yl)-2-methoxybenzamide 2,2,2-trifluoroacetate] | 0.022
Cc1nc(C(=O)Nc2cn3cc(C45COC(C)(C4)C5)nc3c(OC3CCC3)n2)co1 [Example 484, N-(8-cyclobutoxy-2-(1-methyl-2-oxabicyclo[2.1.1]hexan-4-yl)imidazo[1,2-a]pyrazin-6-yl)-2-methyloxazole-4-carboxamide] | 0.02
CC12CC(c3cn4cc(NC(=O)c5coc(C(F)F)n5)nc(OC5CCC5)c4n3)(CO1)C2 [Example 485, N-(8-cyclobutoxy-2-(1-methyl-2-oxabicyclo[2.1.1]hexan-4-yl)imidazo[1,2-a]pyrazin-6-yl)-2-(difluoromethyl)oxazole-4-carboxamide 2,2,2-trifluoroacetate] | 0.037
Cc1nc(C(=O)Nc2cn3cc(C45CCC(C)(C4)OC5)nc3c(OC3CCC3)n2)co1 (stereo not shown) [Example 486, N-(8-cyclobutoxy-2-(1-methyl-2-oxabicyclo[2.2.1]heptan-4-yl)imidazo[1,2-a]pyrazin-6-yl)-2-methyloxazole-4-carboxamide 2,2,2-trifluoroacetate] | 0.016

Molecules with a lower IC50, results first:

IC50 [µM] | Compound
0.006 | COc1nc(NC(=O)c2cccc3ccnn23)cn2cc(C34CCC(C)(C3)OC4)nc12 (stereo not shown) [Example 470, N-(8-methoxy-2-(1-methyl-2-oxabicyclo[2.2.1]heptan-4-yl)imidazo[1,2-a]pyrazin-6-yl)pyrazolo[1,5-a]pyridine-7-carboxamide 2,2,2-trifluoroacetate]
0.008 | CCOc1nc(NC(=O)c2cccc(C(F)F)n2)cn2cc(C3CCOCC3)nc12 [Example 475, 6-(difluoromethyl)-N-(8-ethoxy-2-(tetrahydro-2H-pyran-4-yl)imidazo[1,2-a]pyrazin-6-yl)picolinamide 2,2,2-trifluoroacetate]
0.006 | CCCOc1nc(NC(=O)c2cccc(C(F)F)n2)cn2cc(C3CCOCC3)nc12 [Example 476, 6-(difluoromethyl)-N-(8-propoxy-2-(tetrahydro-2H-pyran-4-yl)imidazo[1,2-a]pyrazin-6-yl)picolinamide 2,2,2-trifluoroacetate]
0.012 | Cc1cccc(C(=O)Nc2cn3cc(C45COC(C)(C4)C5)nc3c(OC(C)C)n2)c1F [Example 478, 2-fluoro-N-(8-isopropoxy-2-(1-methyl-2-oxabicyclo[2.1.1]hexan-4-yl)imidazo[1,2-a]pyrazin-6-yl)-3-methylbenzamide 2,2,2-trifluoroacetate]
0.005 | CC(C)Oc1nc(NC(=O)c2cccc3ncnn23)cn2cc(C34COC(C)(C3)C4)nc12 [Example 480, N-(8-isopropoxy-2-(1-methyl-2-oxabicyclo[2.1.1]hexan-4-yl)imidazo[1,2-a]pyrazin-6-yl)-[1,2,4]triazolo[1,5-a]pyridine-5-carboxamide]
0.001 | CC(C)Oc1nc2nc(C3CCOCC3)cn2cc1NC(=O)c1cccc2c1OCC2(F)F [Example 487, 3,3-difluoro-N-(7-isopropoxy-2-(tetrahydro-2H-pyran-4-yl)imidazo[1,2-a]pyrimidin-6-yl)-2,3-dihydrobenzofuran-7-carboxamide]
0.002 | COc1ccccc1C(=O)Nc1cn2cc(C34COC(C)(C3)C4)nc2nc1OC(C)C [Example 488, N-(7-isopropoxy-2-(1-methyl-2-oxabicyclo[2.1.1]hexan-4-yl)imidazo[1,2-a]pyrimidin-6-yl)-2-methoxybenzamide]
0.003 | COc1c(F)cccc1C(=O)Nc1cn2cc(C34COC(C)(C3)C4)nc2nc1OC(C)C [Example 489, 3-fluoro-N-(7-isopropoxy-2-(1-methyl-2-oxabicyclo[2.1.1]hexan-4-yl)imidazo[1,2-a]pyrimidin-6-yl)-2-methoxybenzamide 2,2,2-trifluoroacetate]
0.001 | Cc1cccc(C(=O)Nc2cn3cc(C45COC(C)(C4)C5)nc3nc2OC(C)C)c1F [Example 490, 2-fluoro-N-(7-isopropoxy-2-(1-methyl-2-oxabicyclo[2.1.1]hexan-4-yl)imidazo[1,2-a]pyrimidin-6-yl)-3-methylbenzamide]
0.001 | CC(C)Oc1nc2nc(C34COC(C)(C3)C4)cn2cc1NC(=O)c1cccc(C2CCOC2)n1 (stereo not shown) [Example 493, N-(7-isopropoxy-2-(1-methyl-2-oxabicyclo[2.1.1]hexan-4-yl)imidazo[1,2-a]pyrimidin-6-yl)-6-(tetrahydrofuran-3-yl)picolinamide]
0.006 | CC(C)Oc1nc2nc(C34COC(C)(C3)C4)cn2cc1NC(=O)c1cccc(OC2CC2)n1 [Example 494, 6-cyclopropoxy-N-(7-isopropoxy-2-(1-methyl-2-oxabicyclo[2.1.1]hexan-4-yl)imidazo[1,2-a]pyrimidin-6-yl)picolinamide]
0.007 | CC(C)Oc1nc2nc(C34COC(C)(C3)C4)cn2cc1NC(=O)c1ccnc2ccnn12 [Example 495, N-(7-isopropoxy-2-(1-methyl-2-oxabicyclo[2.1.1]hexan-4-yl)imidazo[1,2-a]pyrimidin-6-yl)pyrazolo[1,5-a]pyrimidine-7-carboxamide]
0.001 | CC(C)Oc1nc2nc(C34COC(C)(C3)C4)cn2cc1NC(=O)c1cccn(C(F)F)c1=O [Example 496, 1-(difluoromethyl)-N-(7-isopropoxy-2-(1-methyl-2-oxabicyclo[2.1.1]hexan-4-yl)imidazo[1,2-a]pyrimidin-6-yl)-2-oxo-1,2-dihydropyridine-3-carboxamide 2,2,2-trifluoroacetate]
0.006 | CC(C)Oc1nc2nc(C34COC(C)(C3)C4)cn2cc1NC(=O)c1ccn(C)n1 [Example 497, N-(7-isopropoxy-2-(1-methyl-2-oxabicyclo[2.1.1]hexan-4-yl)imidazo[1,2-a]pyrimidin-6-yl)-1-methyl-1H-pyrazole-3-carboxamide]
0.001 | CC(C)Oc1nc2nc(C34COC(C)(C3)C4)cn2cc1NC(=O)c1ccn(C(F)F)n1 [Example 498, 1-(difluoromethyl)-N-(7-isopropoxy-2-(1-methyl-2-oxabicyclo[2.1.1]hexan-4-yl)imidazo[1,2-a]pyrimidin-6-yl)-1H-pyrazole-3-carboxamide]
0.001 | CC(C)Oc1nc2nc(C34COC(C)(C3)C4)cn2cc1NC(=O)c1csc(C(F)(F)F)n1 [Example 499, N-(7-isopropoxy-2-(1-methyl-2-oxabicyclo[2.1.1]hexan-4-yl)imidazo[1,2-a]pyrimidin-6-yl)-2-(trifluoromethyl)thiazole-4-carboxamide]
